Experimental data as given in article PMC8955020, “Pharmacokinetics of Nafamostat, a Potent Serine Protease Inhibitor, by a Novel LC-MS/MS Analysis” (Molecules, 2022).
Like-named read-outs stand apart in the source and are kept apart here.

Key:
[1] = Effect of pH on stability of nafamostat in plasma under different storage conditions; type: in vitro ADME, rat; conditions: 160 ng/mL in plasma
Procedure: Nafamostat in the biological fluid is highly unstable because it is rapidly hydrolyzed by erythrocytes in the blood, as well as by arylesterase in the plasma. Quick plasma preparation is one of the general stabilization strategies for unstable compounds in the biological matrices. Therefore, to prevent the hydrolysis of nafamostat by erythrocytes after acquiring the blood samples, the centrifugation time of the blood samples was shortened from 10 to 5 min. In addition, the stability of nafamostat was examined by modulating the pH of plasma samples to determine the optimal pH to minimize the enzymatic hydrolysis. […] Nafamostat concentrations were also determined under various storage conditions, i.e., (A) immediately, (B) after 24 h left at room temperature, (C) after being subjected to five freeze–thaw cycles, and (D) after 10 days at −20 °C. […] Accordingly, once plasma samples were collected, 3 µL of 5.5 mol/L HCl was added to 150 µL of the collected plasma samples to keep the plasma samples in 0.35% HCl (pH = 1.2).

[2] = Pharmacokinetics of nafamostat in rats after intravenous injection and oral administration (LC-MS/MS, non-compartmental); type: in vivo; conditions: rat
Procedure: Therefore, nafamostat dissolved in 5% DMSO was administered by intravenous injection via penile vein at a dose of 2 mg/kg (n = 5). For oral administration, nafamostat was dissolved in two types of vehicles: (1) 10% DMSO, (2) 10% DMSO with 10% Tween 80, and orally administered at a dose of 20 mg/kg (n = 5). […] The animal study was approved by the Ethics Committee for the Treatment of Laboratory Animals at Sungkyunkwan University (SKKUIACUC2021-01-57-1) and conducted in accordance with the standard operating procedures (SOPs). Male Sprague–Dawley rats (7 weeks, 188–204 g; DBL, Eumseong, Korea) were kept in plastic cages with free access to a standard diet (Cargill Agri Purina, Seongnam, Korea) and water. The animals were maintained at a temperature of 23 ± 2 °C with a 12 h light–dark cycle and relative humidity of 50 ± 10%. Nafamostat dissolved in 5% DMSO (1 mg/mL) was administered by intravenous injection via penile vein at a dose of 2 mg/kg (n = 5). Approximately 0.3 mL of the venous blood samples were collected at 5, 10, 15, 30 min, 1, 1.5, 2, 3, 4, 6, 8, and 12 h after drug administration directly from the jugular vein. For oral administration, nafamostat was dissolved in two types of vehicle: (1) 10% DMSO, (2) 10% DMSO with 10% Tween 80. The prepared nafamostat solution in Vehicle 1 or Vehicle 2 was orally administered at a dose of 20 mg/kg (n = 5). Approximately 0.3 mL of the venous blood samples were collected at 15, 30, 45 min, 1, 1.5, 2, 3, 4, 6, 8, and 12 h after drug administration directly from the jugular vein. Plasma samples were obtained by centrifugation of the blood samples at 15,000× g for 5 min. Finally, 150 μL of the plasma samples were mixed with 3 μL of the 5.5 mol/L HCl and stored at −20 °C until analysis. The plasma nafamostat concentration–time data were analyzed by a non-compartmental method using the nonlinear least-squares regression program, Phoenix WinNonlin (Version 6.4, Certara, L.P., Princeton, NJ, USA).

[3] = Stability of nafamostat in rat plasma (autosampler, freeze/thaw, short-term, long-term); type: in vitro ADME; conditions: for Percentage over Theoretical Concentration, Long-Term Stability: 2 weeks; for Percentage over Theoretical Concentration, Freeze/Thaw Stability: 5 cycles; for Percentage over Theoretical Concentration, Autosampler Stability / Percentage over Theoretical Concentration, Short-Term Stability: 24 h; for Percentage over Theoretical Concentration, Autosampler Stability: 4 °C; for Percentage over Theoretical Concentration, Short-Term Stability: 20 °C
Procedure: The stability of the nafamostat in the rat plasma was determined under four different storage conditions. […] The stability of nafamostat and IS was examined under four different conditions using three replicates of low, medium, and high QC samples in the rat plasma. The autosampler stability was determined by analyzing the QC samples left in the autosampler at 4 °C for 24 h. The freeze–thaw stability was determined by analyzing the QC samples subject to five freeze–thaw cycles. The short-term stability was determined by analyzing the QC samples left at room temperature for 24 h. […] All stability data were expressed as the percentage of the mean response of the QC samples for stability tests vs. those of the freshly prepared samples at the same concentrations.

[4] = parameters: method as in PMID 18392693; conditions: humans; cited from earlier work
[5] = male, Sprague-Dawley, plasma, iv, 2 mg/kg, IV injection 2 mg/kg in 5% DMSO
[6] = male, Sprague-Dawley, plasma, po, 20 mg/kg, oral 20 mg/kg, vehicle 1: 10% DMSO
[7] = male, Sprague-Dawley, plasma, po, 20 mg/kg, oral 20 mg/kg, vehicle 2: 10% DMSO + 10% Tween 80
[8] = IV injection 2 mg/kg in 5% DMSO

stability (observed vs theoretical concentration) ([1]; 0.1% ammonium hydroxide (pH = 10.5), A: immediately): 29.29 ± 1.26%
stability (observed vs theoretical concentration) ([1]; 0.1% ammonium hydroxide (pH = 10.5), B: after 24 h at room temperature): 0.09 ± 0.01%
stability (observed vs theoretical concentration) ([1]; 0.1% ammonium hydroxide (pH = 10.5), C: after 5 freeze-thaw cycles): 5.21 ± 0.32%
stability (observed vs theoretical concentration) ([1]; 0.1% ammonium hydroxide (pH = 10.5), D: after 10 days at −20 °C): 0.13 ± 0.08%
stability (observed vs theoretical concentration) ([1]; 0.1% formic acid (pH = 2.8), A: immediately): 66.56 ± 3.73%
stability (observed vs theoretical concentration) ([1]; 0.1% formic acid (pH = 2.8), B: after 24 h at room temperature): 0.16 ± 0.05%
stability (observed vs theoretical concentration) ([1]; 0.1% formic acid (pH = 2.8), C: after 5 freeze-thaw cycles): 48.25 ± 2.26%
stability (observed vs theoretical concentration) ([1]; 0.1% formic acid (pH = 2.8), D: after 10 days at −20 °C): 0.12 ± 0.07%
stability (observed vs theoretical concentration) ([1]; 0.35% HCl (pH = 1.2), A: immediately): 103.67 ± 0.60%
stability (observed vs theoretical concentration) ([1]; 0.35% HCl (pH = 1.2), B: after 24 h at room temperature): 104.42 ± 2.50%
stability (observed vs theoretical concentration) ([1]; 0.35% HCl (pH = 1.2), C: after 5 freeze-thaw cycles): 103.12 ± 2.19%
stability (observed vs theoretical concentration) ([1]; 0.35% HCl (pH = 1.2), D: after 10 days at −20 °C): 107.15 ± 0.69%
stability (observed vs theoretical concentration) ([1]; 1.0% formic acid (pH = 2.2), A: immediately): 97.66 ± 6.58%
stability (observed vs theoretical concentration) ([1]; 1.0% formic acid (pH = 2.2), B: after 24 h at room temperature): 100.05 ± 1.83%
stability (observed vs theoretical concentration) ([1]; 1.0% formic acid (pH = 2.2), C: after 5 freeze-thaw cycles): 101.86 ± 1.51%
stability (observed vs theoretical concentration) ([1]; 1.0% formic acid (pH = 2.2), D: after 10 days at −20 °C): 105.67 ± 0.59%
stability (observed vs theoretical concentration) ([1]; saline (pH = 5.5), A: immediately): 63.47 ± 2.32%
stability (observed vs theoretical concentration) ([1]; saline (pH = 5.5), B: after 24 h at room temperature): 0.13 ± 0.03%
stability (observed vs theoretical concentration) ([1]; saline (pH = 5.5), C: after 5 freeze-thaw cycles): 19.01 ± 1.61%
stability (observed vs theoretical concentration) ([1]; saline (pH = 5.5), D: after 10 days at −20 °C): 9.93 ± 1.76%
Vd ([2]; male, Sprague-Dawley, plasma, IV injection 2 mg/kg in 5% DMSO, read-out: Vss): 0.99 ± 0.65 L/kg
CL/F ([2]; male, Sprague-Dawley, plasma, oral 20 mg/kg, vehicle 2: 10% DMSO + 10% Tween 80, read-out: CL or CL/F): 319 ± 119 L/h/kg
AUC(0-inf) [2, 5]: 447 ± 35.9 ng·h/mL
half-life [2, 5]: 1.39 h
Cmax ([2]; male, Sprague-Dawley, plasma, iv, 2 mg/kg, IV injection 2 mg/kg in 5% DMSO, plasma, read-out: C0 or Cmax): 5290 ± 808 ng/mL
AUC(0-inf) [2, 6]: 42.4 ± 12.5 ng·h/mL
Tmax [2, 6]: 0.45 ± 0.21 h
bioavailability [2, 6]: 0.95 ± 0.25%
half-life [2, 6]: 2.21 ± 1.3 h
Cmax ([2]; male, Sprague-Dawley, plasma, po, 20 mg/kg, oral 20 mg/kg, vehicle 1: 10% DMSO, read-out: C0 or Cmax): 27.8 ± 8.17 ng/mL
AUC(0-inf) [2, 7]: 71.2 ± 29.9 ng·h/mL
Tmax [2, 7]: 1 ± 0.53 h
bioavailability [2, 7]: 1.59 ± 0.6%
half-life [2, 7]: 2.3 ± 1.11 h
Cmax ([2]; male, Sprague-Dawley, plasma, po, 20 mg/kg, oral 20 mg/kg, vehicle 2: 10% DMSO + 10% Tween 80, read-out: C0 or Cmax): 33.2 ± 18.8 ng/mL
CL or CL/F [2, 8]: 4.495 ± 0.367 L/h/kg
Vz or Vz/F [2, 8]: 8.75 ± 3.80 L/kg
t1/2 ([2]; IV injection 2 mg/kg in 5% DMSO, plasma, 2 mg/kg): 1.34 ± 0.51 h
Vz or Vz/F ([2]; oral 20 mg/kg, vehicle 1: 10% DMSO): 1906.08 ± 1841.14 L/kg
Vz or Vz/F ([2]; oral 20 mg/kg, vehicle 2: 10% DMSO + 10% Tween 80): 998.85 ± 401.04 L/kg
time to reach peak concentration (Cmax) ([2]; oral administration 20 mg/kg, both vehicles): ≤ 1.0 h
Percentage over Theoretical Concentration, Long-Term Stability ([3]; 2 ng/mL): 97.25 ± 4.73%
Percentage over Theoretical Concentration, Freeze/Thaw Stability ([3]; 2 ng/mL): 99.02 ± 3.61%
Percentage over Theoretical Concentration, Autosampler Stability ([3]; 2 ng/mL): 97.2 ± 4.98%
Percentage over Theoretical Concentration, Short-Term Stability ([3]; 2 ng/mL): 96.57 ± 2.66%
Percentage over Theoretical Concentration, Long-Term Stability ([3]; 80 ng/mL): 99.38 ± 0.49%
Percentage over Theoretical Concentration, Freeze/Thaw Stability ([3]; 80 ng/mL): 100.40 ± 0.20%
Percentage over Theoretical Concentration, Autosampler Stability ([3]; 80 ng/mL): 101.31 ± 2.00%
Percentage over Theoretical Concentration, Short-Term Stability ([3]; 80 ng/mL): 101.11 ± 1.95%
Percentage over Theoretical Concentration, Long-Term Stability ([3]; 160 ng/mL): 96.62 ± 1.63%
Percentage over Theoretical Concentration, Freeze/Thaw Stability ([3]; 160 ng/mL): 98.44 ± 0.58%
Percentage over Theoretical Concentration, Autosampler Stability ([3]; 160 ng/mL): 97.45 ± 0.31%
Percentage over Theoretical Concentration, Short-Term Stability ([3]; 160 ng/mL): 97.64 ± 2.18%
SMILES: N=C(N)c1ccc2cc(OC(=O)c3ccc(N=C(N)N)cc3)ccc2c1 [nafamostat, 6′-amidino-2-naphthyl 4-guanidinobenzoate]
t1/2(β) [4]: 1.87 to 2.13 h
